Patent publication US20240239799A1, “(S)-1-(5-((PYRIDIN-3-YL)THIO)PYRAZIN-2-YL)-4'H,6'H-SPIRO[PIPERIDINE-4,5'-PYRROLO [1,2-B]PYRAZOL]-4'-AMINE DERIVATIVES AND SIMILAR COMPOUNDS AS SHP2 INHIBITORS FOR THE TREATMENT OF E.G. CANCER” (C.N.C.C.S. S.C.A.R.L. COLLEZIONE NAZIONALE DEI COMPOSTI …, priority 2021, published 2024)
Like-named read-outs stand apart in the source and are kept apart here.

What was measured:
[1] = molecular target: T1, SHP-2 enzyme (Met1-Leu525) (Homo sapiens, UniProt Q06124); experiment: SHP2 inhibition enzymatic assay (DiFMUP substrate, IRS1 peptide activation); assay type: biochemical; details: 0.5 nM SHP-2, 500 nM IRS1 peptide, 75 μM DiFMUP; read-out: SHP2wt - IC50
T1 construct: synthetized by Origene, Met1-Leu525, cat #TP750155; purchased Origene TP750155
T1 sequence (Q06124 1-525): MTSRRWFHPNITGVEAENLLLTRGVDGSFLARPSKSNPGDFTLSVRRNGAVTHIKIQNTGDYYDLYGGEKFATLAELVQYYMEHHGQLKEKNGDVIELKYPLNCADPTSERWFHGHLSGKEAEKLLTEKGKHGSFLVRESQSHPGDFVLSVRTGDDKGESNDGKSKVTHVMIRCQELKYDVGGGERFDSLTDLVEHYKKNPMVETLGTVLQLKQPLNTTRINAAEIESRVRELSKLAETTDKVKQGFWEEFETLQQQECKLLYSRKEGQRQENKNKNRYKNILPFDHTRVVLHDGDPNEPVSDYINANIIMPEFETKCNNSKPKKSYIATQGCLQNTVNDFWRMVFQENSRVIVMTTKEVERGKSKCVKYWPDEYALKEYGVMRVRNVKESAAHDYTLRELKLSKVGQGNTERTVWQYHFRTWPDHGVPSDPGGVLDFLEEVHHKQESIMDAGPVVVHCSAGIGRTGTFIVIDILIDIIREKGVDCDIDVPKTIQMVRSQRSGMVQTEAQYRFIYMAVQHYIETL
Protocol: Assay volume of 20 μL/well was assembled in 384 well black polystyrene low-binding microplates (Greiner), using the following buffer: 60 mM HEPES pH 7.2, 75 mM NaCl, 75 mM KCl, 1 mM EDTA pH 8, 0.05% tween-20, 5 mM DTT. The SHP-2 enzyme (synthetized by Origene, Met1-Leu525, cat #TP750155) was used at a final concentration of 0.5 nM.
Briefly, DMSO serially diluted testing compounds were transferred to the bottom of the assay plate. SHP2 was then added together with the IRS1 peptide 30 min post incubation, the DiFMUP substrate was added to the reaction and incubated 30 min at rt. […] The fluorescence was detected by a microplate reader (Envision, PerkinElmer) according to the DiFMUP excitation and emission wavelength. The lower the fluorescence the higher the SHP2 inhibition.
The percentage inhibition is fitted against the compound dilutions with a four-parameter logistic regression. The inflection point (i.e. the concentration at which half-maximal inhibition is achieved) is the IC50.

[2] = tested on: phospho-ERK1/2 (Thr202/Tyr204) in KYSE-520 cells; experiment: Phospho-ERK cellular assay (TR-FRET); assay type: cell-based; details: Homo sapiens, KYSE-520 cells, 2 h at 37° C., read-out: pERK IC50
Protocol: ERK phosphorylation was detected using the “Advanced phospho-ERK1/2 (Thr202/Tyr204)” TR-FRET kit (Cisbio, Cat #64AERPEG/H), following the manufacturer reagents and instructions.
Briefly, 20.000/well KYSE-520 cells (DSMZ ACC 371) were plated in 6 μL RPMI-1640 (Invitrogen) growth medium, into 384 white low-volume high base TC microplates (Greiner). After an overnight incubation, cells were treated with DMSO serial diluted compounds and incubated for 2 h at 37° C. After incubation, 2 μL/well of 4X Lysis Buffer (Cisbio 64KL1FDF), were added and incubated with cells for 30 min on gentle shaking. Finally, lysates were added with 2 μL/well of Eu cryptate (donor) and D2 (acceptor) conjugated antibodies (as provided by the Cisbio kit #64AERPEG/H) diluted 1:100 in Detection Buffer (as provided by the Cisbio kit #64AERPEG/H). Plates were then sealed and incubated at rt in the dark. After an overnight incubation, the TR-FRET signal was detected on a suitable reader (Envision, PerkinElmer). The lower the TR-FRET signal the higher the higher the SHP2 inhibition in cells.
The activity of each compound dilution was calculated as percentage between vehicle DMSO treated cells and no cells, 0% inhibition and 100% inhibition respectively. The percentage activity is fitted against the compound dilutions with a four-parameter logistic regression. The inflection point (i.e. the concentration at which half-maximal inhibition is achieved) is the IC50.

SMILES	IC50 [1] [nM]	IC50 ([2]; KYSE-520, 2 h) [nM]	IC50 [2] [nM]
N#Cc1cn2ccc(Sc3cnc(N4CCC5(CC4)Cn4nccc4[C@H]5N)cn3)c(Cl)c2n1 [Example 57, (S)-7-((5-(4′-amino-4′H,6′H-spiro[piperidine-4,5′-pyrrolo[1,2-b]pyrazol]-1-yl)pyrazin-2-yl)thio)-8-chloroimidazo[1,2-a]pyridine-2-carbonitrile]	≤ 50	< 100	–
N[C@@H]1c2ccnn2CC12CCN(c1cnc(SC3=C(Cl)C4=NC(=O)CN4C=C3)cn1)CC2 [Example 58, (S)-7-((5-(4′-amino-4′H,6′H-spiro[piperidine-4,5′-pyrrolo[1,2-b]pyrazol]-1-yl)pyrazin-2-yl)thio)-8-chloroimidazo[1,2-a]pyridin-2(3H)-one]	≤ 50	–	100 to 500
N[C@@H]1c2ccnn2CC12CCN(c1cnc(Sc3ccnc(-n4ccnc4)c3Cl)cn1)CC2 [Example 59, (S)-1-(5-((3-chloro-2-(1H-imidazol-1-yl)pyridin-4-yl)thio)pyrazin-2-yl)-4′H,6′H-spiro[piperidine-4,5′-pyrrolo[1,2-b]pyrazol]-4′-amine]	≤ 50	< 100	–
Nc1nc(N2CCC3(CC2)Cn2nccc2[C@H]3N)cnc1Sc1ccnc(-n2cccn2)c1Cl [Example 60, (S)-1-(6-amino-5-((3-chloro-2-(1H-pyrazol-1-yl)pyridin-4-yl)thio)pyrazin-2-yl)-4′H,6′H-spiro[piperidine-4,5′-pyrrolo[1,2-b]pyrazol]-4′-amine]	≤ 50	< 100	–
N[C@@H]1c2ccnn2CC12CCN(c1cnc(Sc3ccnc(-n4cc(F)cn4)c3Cl)cn1)CC2 [Example 61, (S)-1-(5-((3-chloro-2-(4-fluoro-1H-pyrazol-1-yl)pyridin-4-yl)thio)pyrazin-2-yl)-4′H,6′H-spiro[piperidine-4,5′-pyrrolo[1,2-b]pyrazol]-4′-amine]	≤ 50	< 100	–
N[C@@H]1c2ccnn2CC12CCN(c1cnc(Sc3ccnc(-n4cccc4)c3Cl)cn1)CC2 [Example 62, (S)-1-(5-((3-chloro-2-(1H-pyrrol-1-yl)pyridin-4-yl)thio)pyrazin-2-yl)-4′H,6′H-spiro[piperidine-4,5′-pyrrolo[1,2-b]pyrazol]-4′-amine]	≤ 50	< 100	–
Nc1nc(N2CCC3(CC2)Cn2nccc2[C@H]3N)cnc1Sc1ccnc(-n2ccnc2)c1Cl [Example 63, (S)-1-(6-amino-5-((3-chloro-2-(1H-imidazol-1-yl)pyridin-4-yl)thio)pyrazin-2-yl)-4′H,6′H-spiro[piperidine-4,5′-pyrrolo[1,2-b]pyrazol]-4′-amine]	≤ 50	< 100	–
Cc1cn2ccc(Sc3ncc(N4CCC5(CC4)Cn4nccc4[C@H]5N)nc3N)c(Cl)c2n1 [Example 64, (S)-1-(6-amino-5-((8-chloro-2-methylimidazo[1,2-a]pyridin-7-yl)thio)pyrazin-2-yl)-4′H,6′H-spiro[piperidine-4,5′-pyrrolo[1,2-b]pyrazol]-4′-amine]	≤ 50	< 100	–

Now from value to molecule, other results behind:

IC50 [1] [nM]	IC50 ([2]; KYSE-520, 2 h) [nM]	SMILES	IC50 [2] [nM]
≤ 50	< 100	NC(=O)c1cnn(-c2nccc(Sc3cnc(N4CCC5(CC4)Cn4nccc4[C@H]5N)cn3)c2Cl)c1 [Example 65, (S)-1-(4-((5-(4′-amino-4′H,6′H-spiro[piperidine-4,5′-pyrrolo[1,2-b]pyrazol]-1-yl)pyrazin-2-yl)thio)-3-chloropyridin-2-yl)-1H-pyrazole-4-carboxamide]	–
≤ 50	< 100	NC(=O)c1ccn(-c2nccc(Sc3cnc(N4CCC5(CC4)Cn4nccc4[C@H]5N)cn3)c2Cl)c1 [Example 66, (S)-1-(4-((5-(4′-amino-4′H,6′H-spiro[piperidine-4,5′-pyrrolo[1,2-b]pyrazol]-1-yl)pyrazin-2-yl)thio)-3-chloropyridin-2-yl)-1H-pyrrole-3-carboxamide]	–
≤ 50	< 100	CNC(=O)c1ccn(-c2nccc(Sc3cnc(N4CCC5(CC4)Cn4nccc4[C@H]5N)cn3)c2Cl)c1 [Example 67, (S)-1-(4-((5-(4′-amino-4′H,6′H-spiro[piperidine-4,5′-pyrrolo[1,2-b]pyrazol]-1-yl)pyrazin-2-yl)thio)-3-chloropyridin-2-yl)-N-methyl-1H-pyrrole-3-carboxamide]	–
≤ 50	< 100	CN(C)C(=O)c1cn2ccc(Sc3cnc(N4CCC5(CC4)Cn4nccc4[C@H]5N)cn3)c(Cl)c2n1 [Example 68, (S)-7-((5-(4′-amino-4′H,6′H-spiro[piperidine-4,5′-pyrrolo[1,2-b]pyrazol]-1-yl)pyrazin-2-yl)thio)-8-chloro-N,N-dimethylimidazo[1,2-a]pyridine-2-carboxamide]	–
≤ 50	< 100	CN(C)C(=O)c1cnn(-c2nccc(Sc3cnc(N4CCC5(CC4)Cn4nccc4[C@H]5N)cn3)c2Cl)c1 [Example 69, (S)-1-(4-((5-(4′-amino-4′H,6′H-spiro[piperidine-4,5′-pyrrolo[1,2-b]pyrazol]-1-yl)pyrazin-2-yl)thio)-3-chloropyridin-2-yl)-N,N-dimethyl-1H-pyrazole-4-carboxamide]	–
≤ 50	< 100	Cn1cc2c(Cl)c(-c3n[nH]c4nc(N5CCC6(CC5)Cn5nccc5[C@H]6N)cnc34)ccc2n1 [Example 70, (S)-1-(3-(4-chloro-2-methyl-2H-indazol-5-yl)-1H-pyrazolo[3,4-b]pyrazin-6-yl)-4′H,6′H-spiro[piperidine-4,5′-pyrrolo[1,2-b]pyrazol]-4′-amine]	–
≤ 50	100 to 500	N[C@@H]1c2ccnn2CC12CCN(c1cnc3c(-c4ccnc(-n5cccn5)c4Cl)n[nH]c3n1)CC2 [Example 71, (S)-1-(3-(3-chloro-2-(1H-pyrazol-1-yl)pyridin-4-yl)-1H-pyrazolo[3,4-b]pyrazin-6-yl)-4′H,6′H-spiro[piperidine-4,5′-pyrrolo[1,2-b]pyrazol]-4′-amine]	–
≤ 50	100 to 500	N[C@@H]1c2ccnn2CC12CCN(c1cnc3nc(Sc4ccnc(-n5cccn5)c4Cl)ccc3n1)CC2 [Example 72, (S)-1-(6-((3-chloro-2-(1H-pyrazol-1-yl)pyridin-4-yl)thio)pyrido[2,3-b]pyrazin-2-yl)-4′H,6′H-spiro[piperidine-4,5′-pyrrolo[1,2-b]pyrazol]-4′-amine]	–
≤ 50	< 100	Nc1nccc(Sc2ccc3nc(N4CCC5(CC4)Cn4nccc4[C@H]5N)cnc3n2)c1Cl [Example 73, (S)-1-(6-((2-amino-3-chloropyridin-4-yl)thio)pyrido[2,3-b]pyrazin-2-yl)-4′H,6′H-spiro[piperidine-4,5′-pyrrolo[1,2-b]pyrazol]-4′-amine]	–
50 to 300	> 500	Cn1c(N2CCC3(CC2)Cn2nccc2[C@H]3N)nc2nc(Sc3ccnc(N)c3Cl)cnc21 [Example 74, (S)-1-(5-((2-amino-3-chloropyridin-4-yl)thio)-1-methyl-1H-imidazo[4,5-b]pyrazin-2-yl)-4′H,6′H-spiro[piperidine-4,5′-pyrrolo[1,2-b]pyrazol]-4′-amine]	–
≤ 50	100 to 500	N[C@@H]1c2ccnn2CC12CCN(c1cnc(Sc3ccnc(-n4cccn4)c3Cl)c3cncn13)CC2 [Example 75, (S)-1-(8-((3-chloro-2-(1H-pyrazol-1-yl)pyridin-4-yl)thio)imidazo[1,5-a]pyrazin-5-yl)-4′H,6′H-spiro[piperidine-4,5′-pyrrolo[1,2-b]pyrazol]-4′-amine]	–
